Active and inactive are the calls of the source. The rule behind the calls is not given here.
Columns and labels:
[1] = test system: PC-3; assay: Growth inhibition of human PC3 cells at 0.3 uM after 48 hrs by SRB assay; values are per cent of control; details: PC-3, 48 h
[2] = test system: MDA-MB-231; assay: Growth inhibition of human MDA-MB-231 cells at 0.3 uM after 48 hrs by SRB assay; values are per cent of control; details: MDA-MB-231, 48 h
[3] = test system: HCT-15; assay: Growth of human HCT15 cells at 0.3 uM after 48 hrs by SRB assay; details: HCT-15, 48 h
[4] = test system: PC-3; assay: Growth of human PC3 cells at 10 uM after 48 hrs by SRB assay; details: PC-3, 48 h
[5] = test system: MDA-MB-231; assay: Growth of human MDA-MB-231 cells at 0.1 uM after 48 hrs by SRB assay; details: MDA-MB-231, 48 h
[6] = test system: ACHN; assay: Growth inhibition of human ACHN cells after 48 hrs by SRB assay; format: functional
[7] = test system: PC-3; assay: Growth inhibition of human PC3 cells at 3 uM after 48 hrs by SRB assay; values are per cent of control; details: PC-3, 48 h
[8] = test system: NUGC-3; assay: Growth inhibition of human NUGC3 cells at 3 uM after 48 hrs by SRB assay; values are per cent of control; details: NUGC-3, 48 h
[9] = test system: PC-3; assay: Growth inhibition of human PC3 cells after 48 hrs by SRB assay; format: functional; details: PC-3, 48 h
[10] = test system: MDA-MB-231; assay: Growth inhibition of human MDA-MB-231 cells after 48 hrs by SRB assay; format: functional; details: MDA-MB-231, 48 h
[11] = test system: NCI-H23; assay: Growth of human NCI-H23 cells at 0.3 uM after 48 hrs by SRB assay; details: NCI-H23, 48 h
[12] = test system: ACHN; assay: Growth inhibition of human ACHN cells at 1 uM after 48 hrs by SRB assay; values are per cent of control
[13] = test system: PC-3; assay: Growth inhibition of human PC3 cells at 0.1 uM after 48 hrs by SRB assay; values are per cent of control; details: PC-3, 48 h
[14] = molecular target: Rho-related GTP-binding protein RhoB (Homo sapiens) (UniProt P62745); assay: Transactivation of RhoB (unknown origin) transfected in human HeLa cells at 5 uM measured over 10 secs by dual luciferase reporter gene assay; format: cell-based
Sequence of Rho-related GTP-binding protein RhoB (Homo sapiens) (P62745 whole entry): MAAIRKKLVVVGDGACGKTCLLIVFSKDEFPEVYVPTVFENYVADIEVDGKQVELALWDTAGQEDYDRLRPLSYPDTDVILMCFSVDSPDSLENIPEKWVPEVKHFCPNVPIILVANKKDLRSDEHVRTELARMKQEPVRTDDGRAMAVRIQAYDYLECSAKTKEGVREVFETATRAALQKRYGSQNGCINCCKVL

[15] = test system: NCI-H23; assay: Growth inhibition of human NCI-H23 cells at 3 uM after 48 hrs by SRB assay; values are per cent of control; details: NCI-H23, 48 h
[16] = test system: NUGC-3; assay: Growth of human NUGC3 cells at 1 uM after 48 hrs by SRB assay; details: NUGC-3, 48 h
[17] = test system: NUGC-3; assay: Growth inhibition of human NUGC3 cells at 10 uM after 48 hrs by SRB assay; values are per cent of control; details: NUGC-3, 48 h
[18] = test system: HCT-15; assay: Growth inhibition of human HCT15 cells at 1 uM after 48 hrs by SRB assay; values are per cent of control; details: HCT-15, 48 h
[19] = test system: NCI-H23; assay: Growth inhibition of human NCI-H23 cells at 0.1 uM after 48 hrs by SRB assay; values are per cent of control; details: NCI-H23, 48 h
[20] = test system: NCI-H23; assay: Growth of human NCI-H23 cells at 10 uM after 48 hrs by SRB assay; details: NCI-H23, 48 h
[21] = test system: HCT-15; assay: Growth inhibition of human HCT15 cells at 0.1 uM after 48 hrs by SRB assay; values are per cent of control; details: HCT-15, 48 h
[22] = test system: ACHN; assay: Growth of human ACHN cells at 0.3 uM after 48 hrs by SRB assay
[23] = test system: NUGC-3; assay: Growth inhibition of human NUGC3 cells after 48 hrs by SRB assay; format: functional; details: NUGC-3, 48 h
[24] = test system: ACHN; assay: Growth inhibition of human ACHN cells at 3 uM after 48 hrs by SRB assay; values are per cent of control
[25] = test system: NUGC-3; assay: Growth of human NUGC3 cells at 0.1 uM after 48 hrs by SRB assay; details: NUGC-3, 48 h
[26] = test system: NCI-H23; assay: Growth inhibition of human NCI-H23 cells at 1 uM after 48 hrs by SRB assay; values are per cent of control; details: NCI-H23, 48 h
[27] = test system: HCT-15; assay: Growth inhibition of human HCT15 cells at 10 uM after 48 hrs by SRB assay; values are per cent of control; details: HCT-15, 48 h
[28] = test system: HCT-15; assay: Growth inhibition of human HCT15 cells after 48 hrs by SRB assay; format: functional
[29] = test system: PC-3; assay: Growth inhibition of human PC3 cells at 1 uM after 48 hrs by SRB assay; values are per cent of control; details: PC-3, 48 h
[30] = test system: ACHN; assay: Growth of human ACHN cells at 10 uM after 48 hrs by SRB assay
[31] = test system: MDA-MB-231; assay: Growth of human MDA-MB-231 cells at 3 uM after 48 hrs by SRB assay; values are per cent of control; details: MDA-MB-231, 48 h
[32] = test system: ACHN; assay: Growth of human ACHN cells at 0.1 uM after 48 hrs by SRB assay
[33] = test system: MDA-MB-231; assay: Growth of human MDA-MB-231 cells at 1 uM after 48 hrs by SRB assay; details: MDA-MB-231, 48 h
[34] = test system: NCI-H23; assay: Growth inhibition of human NCI-H23 cells after 48 hrs by SRB assay; format: functional; details: NCI-H23, 48 h
[35] = test system: NUGC-3; assay: Growth of human NUGC3 cells at 0.3 uM after 48 hrs by SRB assay; details: NUGC-3, 48 h
[36] = test system: MDA-MB-231; assay: Growth of human MDA-MB-231 cells at 10 uM after 48 hrs by SRB assay; details: MDA-MB-231, 48 h
[37] = test system: HCT-15; assay: Growth of human HCT15 cells at 3 uM after 48 hrs by SRB assay; details: HCT-15, 48 h

Compound	GI50 [6]	GI50 [9]	GI50 [10]	GI50 ([28]; HCT-15, 48 h)	GI50 [34]	growth, % of control at 0.3 µM [1]	growth, % of control at 0.3 µM [2]	growth, % of control at 0.3 µM [3]	growth, % of control at 10 µM [4]	growth, % of control at 0.1 µM [5]	growth, % of control at 3 µM [7]	growth, % of control at 3 µM [8]	growth, % of control at 0.3 µM [11]	growth, % of control at 1 µM [12]	growth, % of control at 0.1 µM [13]	growth, % of control at 3 µM [15]	growth, % of control at 1 µM [16]	growth, % of control at 10 µM [17]	growth, % of control at 1 µM [18]	GI50 [23]	further results
CCCCCCCCCCCCCCS(=O)(=O)N(C)CC[N+](CC)(CC)CC	1460 nM	520 nM	870 nM	3460 nM	470 nM	102%	95.3%	96.6%	-11.5%	96.4%	0.9%	7.9%	90.1%	68.7%	103%	15%	20.9%	-1.3%	87.1%	320 nM	Activity [14]: Active; growth, % of control at 0.1 µM [19]: 97.3%; growth, % of control at 10 µM [20]: -5.6%; growth, % of control at 0.1 µM [21]: 95.3%; growth, % of control at 0.3 µM [22]: 94.5%; growth, % of control at 3 µM [24]: 48.6%; growth, % of control at 0.1 µM [25]: 92%; growth, % of control at 1 µM [26]: 39.8%; growth, % of control at 10 µM [27]: 36%; growth, % of control at 1 µM [29]: 41.4%; growth, % of control at 10 µM [30]: 21.2%; growth, % of control at 3 µM [31]: 34.1%; growth, % of control at 0.1 µM [32]: 96.4%; growth, % of control at 1 µM [33]: 54.2%; growth, % of control at 0.3 µM [35]: 83.8%; growth, % of control at 10 µM [36]: 17.2%; growth, % of control at 3 µM [37]: 72.5%
CCCCCCCCCCCCCCCCS(=O)(=O)NCC(C)(C)C[N+](C)(C)CC	2270 nM	790 nM	2790 nM	1350 nM	690 nM	99.5%	103%	138%	-11.1%	108%	12.9%	18.8%	92.1%	99.6%	109%	30.4%	43.8%	0%	63.2%	570 nM	growth, % of control at 0.1 µM [19]: 100%; growth, % of control at 10 µM [20]: -10.9%; growth, % of control at 0.1 µM [21]: 141%; growth, % of control at 0.3 µM [22]: 100%; growth, % of control at 3 µM [24]: 102%; growth, % of control at 0.1 µM [25]: 115%; growth, % of control at 1 µM [26]: 50.5%; growth, % of control at 10 µM [27]: 21.3%; growth, % of control at 1 µM [29]: 69.4%; growth, % of control at 10 µM [30]: 104%; growth, % of control at 3 µM [31]: 66%; growth, % of control at 0.1 µM [32]: 108%; growth, % of control at 1 µM [33]: 88.6%; growth, % of control at 0.3 µM [35]: 108%; growth, % of control at 10 µM [36]: 27.1%; growth, % of control at 3 µM [37]: 40.2%
CCCCCCCCCCCCCCCCS(=O)(=O)NCC(C)(C)C[N+](C)(C)C	2210 nM	560 nM	1520 nM	560 nM	740 nM	102%	95%	132%	-14.6%	95.6%	0.2%	14.7%	102%	108%	107%	26.3%	33.6%	3%	46.1%	430 nM	growth, % of control at 0.1 µM [19]: 104%; growth, % of control at 10 µM [20]: 0.7%; growth, % of control at 0.1 µM [21]: 136%; growth, % of control at 0.3 µM [22]: 114%; growth, % of control at 3 µM [24]: 101%; growth, % of control at 0.1 µM [25]: 106%; growth, % of control at 1 µM [26]: 54.1%; growth, % of control at 10 µM [27]: 11.7%; growth, % of control at 1 µM [29]: 51.8%; growth, % of control at 10 µM [30]: 99.6%; growth, % of control at 3 µM [31]: 49.5%; growth, % of control at 0.1 µM [32]: 122%; growth, % of control at 1 µM [33]: 73.6%; growth, % of control at 0.3 µM [35]: 87.1%; growth, % of control at 10 µM [36]: 16.5%; growth, % of control at 3 µM [37]: 17.6%

These reach a lower GI50 [9]. Values come first.

GI50 [6]	GI50 [9]	GI50 [10]	GI50 ([28]; HCT-15, 48 h)	GI50 [34]	Compound	growth, % of control at 0.3 µM [1]	growth, % of control at 0.3 µM [2]	growth, % of control at 0.3 µM [3]	growth, % of control at 10 µM [4]	growth, % of control at 0.1 µM [5]	growth, % of control at 3 µM [7]	growth, % of control at 3 µM [8]	growth, % of control at 0.3 µM [11]	growth, % of control at 1 µM [12]	growth, % of control at 0.1 µM [13]	growth, % of control at 3 µM [15]	growth, % of control at 1 µM [16]	growth, % of control at 10 µM [17]	growth, % of control at 1 µM [18]	GI50 [23]	further results
–	480 nM	–	580 nM	–	CCCCCCCCCCCCCCCC(=O)N1CC[N+](C)(C)CC1	–	–	–	–	–	–	–	–	–	–	–	–	–	–	290 nM	Activity [14]: Active
–	440 nM	–	–	–	CCCCCCCCCCCCCCCCCCOP(=O)([O-])OC1CC[N+](C)(C)CC1 [PERIFOSINE]	–	–	–	–	–	–	–	–	–	–	–	–	–	–	540 nM	–
950 nM	360 nM	690 nM	780 nM	430 nM	CCCCCCCCCCCCCCCCS(=O)(=O)N(C)CCC[N+](C)(C)CC	88.2%	89.2%	87.4%	-28.9%	94.8%	-17.9%	-14.1%	73.1%	64.5%	91.6%	14.8%	16.9%	-27.9%	56.5%	200 nM	Activity [14]: Active; growth, % of control at 0.1 µM [19]: 70.4%; growth, % of control at 10 µM [20]: -22.7%; growth, % of control at 0.1 µM [21]: 85.4%; growth, % of control at 0.3 µM [22]: 92.1%; growth, % of control at 3 µM [24]: 35.6%; growth, % of control at 0.1 µM [25]: 76.9%; growth, % of control at 1 µM [26]: 58.8%; growth, % of control at 10 µM [27]: 15.7%; growth, % of control at 1 µM [29]: 25%; growth, % of control at 10 µM [30]: 1.6%; growth, % of control at 3 µM [31]: 27.3%; growth, % of control at 0.1 µM [32]: 102%; growth, % of control at 1 µM [33]: 54.4%; growth, % of control at 0.3 µM [35]: 63.4%; growth, % of control at 10 µM [36]: 0%; growth, % of control at 3 µM [37]: 30.5%
100 nM	210 nM	300 nM	–	240 nM	C=CC[N+](C)(C)CCN(C)C(=O)CCCCCCCCCCCCC	–	–	–	–	–	–	–	–	–	–	–	–	–	–	140 nM	GI50 [28]: inactive

Source: ChEMBL document CHEMBL2434921, “New synthetic aliphatic sulfonamido-quaternary ammonium salts as anticancer chemotherapeutic agents” (2013)
